Source: the supplement of paper PMC10307832

How the values were obtained:
Experiment in all cases: relative viability (nuclei count vs DMSO), 5 days (fraction); higher = more cells survive
Bleomycin + Olaparib = compound: CC1=C(N=C(N=C1N)[C@H](CC(=O)N)NC[C@@H](C(=O)N)N)C(=O)N[C@@H]([C@H](C2=CN=CN2)OC3C(C(C(C(O3)CO)O)O)OC4C(C(C(C(O4)CO)O)OC(=O)N)O)C(=O)N[C@H](C)[C@H]([C@H](C)C(=O)N[C@@H]([C@@H](C)O)C(=O)NCCC5=NC(=CS5)C6=NC(=CS6)C(=O)NCCC[S+](C)C)O [Bleomycin] + O=C(c1cc(Cc2n[nH]c(=O)c3ccccc23)ccc1F)N1CCN(C(=O)C2CC2)CC1 [Olaparib] (partner 8 µM); conditions: main component drawn
In short: (§1)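 Relative viability was taken as the ratio of nuclei in treated wells to nuclei in vehicle wells. Lung cancer cell lines in 1536-well plates received compounds by pin tool one day after seeding, either one drug alone or a fixed anchor-drug dose plus five library-drug doses (not always all listed) in √10 steps. Nuclei were counted on 4× images after 5 days of treatment, and values are medians of duplicate plates.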

Bleomycin + Bortezomib = compound: CC1=C(N=C(N=C1N)[C@H](CC(=O)N)NC[C@@H](C(=O)N)N)C(=O)N[C@@H]([C@H](C2=CN=CN2)OC3C(C(C(C(O3)CO)O)O)OC4C(C(C(C(O4)CO)O)OC(=O)N)O)C(=O)N[C@H](C)[C@H]([C@H](C)C(=O)N[C@@H]([C@@H](C)O)C(=O)NCCC5=NC(=CS5)C6=NC(=CS6)C(=O)NCCC[S+](C)C)O [Bleomycin] + CC(C)C[C@H](NC(=O)[C@H](Cc1ccccc1)NC(=O)c1cnccn1)B(O)O [Bortezomib] (partner 0.002 µM); conditions: main component drawn
In short: as §1

Bleomycin + Pictilisib = compound: CC1=C(N=C(N=C1N)[C@H](CC(=O)N)NC[C@@H](C(=O)N)N)C(=O)N[C@@H]([C@H](C2=CN=CN2)OC3C(C(C(C(O3)CO)O)O)OC4C(C(C(C(O4)CO)O)OC(=O)N)O)C(=O)N[C@H](C)[C@H]([C@H](C)C(=O)N[C@@H]([C@@H](C)O)C(=O)NCCC5=NC(=CS5)C6=NC(=CS6)C(=O)NCCC[S+](C)C)O [Bleomycin] + CS(=O)(=O)N1CCN(Cc2cc3nc(-c4cccc5[nH]ncc45)nc(N4CCOCC4)c3s2)CC1 [Pictilisib] (partner 1 µM); conditions: main component drawn
In short: as §1

Etoposide + Dasatinib = compound: COc1cc([C@@H]2c3cc4c(cc3[C@@H](O[C@@H]3O[C@@H]5CO[C@@H](C)O[C@H]5[C@H](O)[C@H]3O)[C@H]3COC(=O)[C@H]23)OCO4)cc(OC)c1O [Etoposide] + Cc1nc(Nc2ncc(C(=O)Nc3c(C)cccc3Cl)s2)cc(N2CCN(CCO)CC2)n1 [Dasatinib] (partner 0.075 µM)
In short: as §1

Cell Line | relative viability (Bleomycin + Olaparib; first compound 0.01 µM) | relative viability (Bleomycin + Olaparib; first compound 0.03162 µM) | relative viability (Bleomycin + Olaparib; first compound 0.1 µM) | relative viability (Bleomycin + Olaparib; first compound 0.3162 µM) | relative viability (Bleomycin + Olaparib; first compound 1 µM) | relative viability (Bleomycin + Bortezomib; first compound 0.01 µM) | relative viability (Bleomycin + Bortezomib; first compound 0.03162 µM) | relative viability (Bleomycin + Bortezomib; first compound 0.1 µM) | relative viability (Bleomycin + Bortezomib; first compound 0.3162 µM) | relative viability (Bleomycin + Bortezomib; first compound 1 µM) | relative viability (Bleomycin + Pictilisib; first compound 0.01 µM) | relative viability (Bleomycin + Pictilisib; first compound 0.03162 µM) | relative viability (Bleomycin + Pictilisib; first compound 0.1 µM) | relative viability (Bleomycin + Pictilisib; first compound 0.3162 µM) | relative viability (Bleomycin + Pictilisib; first compound 1 µM) | relative viability (Etoposide + Dasatinib; first compound 0.01 µM) | relative viability (Etoposide + Dasatinib; first compound 0.03162 µM) | relative viability (Etoposide + Dasatinib; first compound 0.1 µM) | relative viability (Etoposide + Dasatinib; first compound 0.3162 µM) | relative viability (Etoposide + Dasatinib; first compound 1 µM)
NCI-H2405 | 0.668 | 0.757 | 0.669 | 0.395 | 0.277 | 0.875 | 0.932 | 0.91 | 0.525 | 0.371 | 0.45 | 0.417 | 0.42 | 0.254 | 0.202 | 0.219 | 0.23 | 0.239 | 0.197 | 0.199
NCI-H23 | 0.205 | 0.153 | 0.171 | 0.107 | 0.107 | 0.424 | 0.374 | 0.276 | 0.165 | 0.2 | 0.262 | 0.348 | 0.263 | 0.169 | 0.153 | 0.805 | 0.821 | 0.504 | 0.384 | 0.185
EKVX | 0.719 | 0.563 | 0.501 | 0.244 | 0.231 | 0.859 | 1.04 | 0.954 | 0.511 | 0.318 | 0.422 | 0.39 | 0.376 | 0.212 | 0.189 | 0.619 | 0.529 | 0.354 | 0.37 | 0.282
HOP-62 | 0.175 | 0.137 | 0.0997 | 0.0722 | 0.0872 | 0.359 | 0.189 | 0.0755 | 0.113 | 0.072 | 0.427 | 0.31 | 0.389 | 0.115 | 0.103 | 0.584 | 0.676 | 0.492 | 0.621 | 0.363
NCI-H2228 | 0.443 | 0.574 | 0.457 | 0.211 | 0.159 | 1.14 | 1.02 | 0.721 | 0.558 | 0.293 | 0.553 | 0.356 | 0.386 | 0.361 | 0.328 | 0.61 | 0.473 | 0.306 | 0.418 | 0.131
EPLC-272H | 0.407 | 0.237 | 0.183 | 0.0606 | 0.111 | 0.863 | 0.883 | 0.718 | 0.174 | 0.158 | 0.288 | 0.352 | 0.265 | 0.137 | 0.161 | 0.373 | 0.342 | 0.222 | 0.354 | 0.245
RERF-LC-KJ | 0.425 | 0.385 | 0.325 | 0.162 | 0.16 | 0.887 | 0.727 | 0.625 | 0.343 | 0.334 | 0.269 | 0.433 | 0.316 | 0.188 | 0.167 | 0.602 | 0.899 | 0.707 | 0.73 | 0.494
NCI-H661 | 0.654 | 0.59 | 0.513 | 0.322 | 0.363 | 0.838 | 0.603 | 0.484 | 0.228 | 0.251 | 0.523 | 0.387 | 0.263 | 0.25 | 0.245 | 0.787 | 1.02 | 0.671 | 0.586 | 0.306
PC-14 | 0.114 | 0.147 | 0.0932 | 0.0421 | 0.0404 | 0.541 | 0.253 | 0.155 | 0.0725 | 0.0825 | 0.369 | 0.259 | 0.159 | 0.0359 | 0.0457 | 0.266 | 0.227 | 0.276 | 0.217 | 0.151
COR-L 105 | 0.614 | 0.518 | 0.526 | 0.417 | 0.352 | 0.711 | 0.594 | 0.549 | 0.337 | 0.292 | 0.412 | 0.43 | 0.406 | 0.278 | 0.276 | 0.3 | 0.345 | 0.273 | 0.328 | 0.293
NCI-H3122 | 0.593 | 0.599 | 0.506 | 0.364 | 0.279 | 0.999 | 0.976 | 0.957 | 0.698 | 0.428 | 0.642 | 0.591 | 0.577 | 0.243 | 0.36 | 0.749 | 0.775 | 0.112 | 0.817 | 0.223
NCI-H727 | 0.732 | 0.634 | 0.612 | 0.592 | 0.624 | 0.796 | 0.853 | 0.775 | 0.303 | 0.37 | 0.375 | 0.299 | 0.268 | 0.239 | 0.357 | 0.4 | 0.355 | – | 0.37 | 0.408
NCI-H1915 | 0.2 | 0.226 | 0.166 | 0.137 | 0.11 | 0.645 | 0.823 | 0.384 | 0.179 | 0.136 | 0.575 | 0.65 | 0.535 | 0.247 | 0.146 | 0.31 | 0.413 | 0.236 | 0.326 | 0.286
CAL-12T | 0.416 | 0.375 | 0.217 | 0.177 | 0.135 | – | 0.87 | 0.692 | 0.293 | 0.28 | – | 0.588 | 0.394 | 0.207 | 0.236 | 0.345 | 0.473 | 0.351 | 0.396 | 0.196
